Measured values: PubChem BioAssay AID180 (DTP/NCI, 2004)
Values joined by “and” are separate entries in the source; they are usually repeats but may differ in a detail not shown here. Equal values may be shown once.

Test system: BDF1 mice, Adenocarcinoma 755 s.c., tumor weight T/C
Test: NCI In Vivo Anticancer Drug Screen. Data for tumor model Adenocarcinoma 755 (subcutaneous) in B6D2F1 (BDF1) mice
Conditions: endpoint: mean tumor weight, higher = larger tumour
In short: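 Transplantable tumor implanted; mice dosed with compound or vehicle; survival or tumor size recorded; ratio of treated to vehicle control reported.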

[1] = dose: 30.0 mg/kg/injection, schedule: Q01DX011 (ip), vehicle: carboxymethylcellulose (CMC)
[2] = dose: 60.0 mg/kg/injection, schedule: Q01DX011 (ip), vehicle: carboxymethylcellulose (CMC)
[3] = dose: 120.0 mg/kg/injection, schedule: Q01DX011 (ip), vehicle: carboxymethylcellulose (CMC)
[4] = dose: 240.0 mg/kg/injection, schedule: Q01DX011 (ip), vehicle: carboxymethylcellulose (CMC)
[5] = dose: 12.5 mg/kg/injection, schedule: Q01DX011 (ip), vehicle: carboxymethylcellulose (CMC)
[6] = dose: 25.0 mg/kg/injection, schedule: Q01DX011 (ip), vehicle: carboxymethylcellulose (CMC)
[7] = dose: 6.0 mg/kg/injection, schedule: Q01DX011 (ip), vehicle: carboxymethylcellulose (CMC)
[8] = dose: 75.0 mg/kg/injection, schedule: Q01DX011 (ip), vehicle: carboxymethylcellulose (CMC)

Compound: CSc1nc(=O)cc2[nH]c(O)cn12
- T/C [1]: 90 % of control
- T/C [2]: 98 % of control
- T/C [3]: 50 % of control
- T/C [4]: 118 % of control

Compound: CCNc1ncnc2c1cnn2C1CCCO1 (configuration not stated)
- T/C (dose: 3.1 mg/kg/injection, schedule: Q01DX011 (ip), vehicle: methylcellulose (MC)): 61 % of control
- T/C (dose: 6.2 mg/kg/injection, schedule: Q01DX011 (ip), vehicle: methylcellulose (MC)): 39 % of control
- T/C (dose: 12.5 mg/kg/injection, schedule: Q01DX011 (ip), vehicle: methylcellulose (MC)): 3 % of control

Compound: COc1ccc(-c2c(C)c(C(=O)O)nc(-c3ccc(C(=O)O)c(C(=O)O)n3)c2N)c(O)c1OC
- T/C (dose: 100.0 mg/kg/injection, schedule: Q01DX011 (ip), vehicle: water): 58 % of control
- T/C (dose: 200.0 mg/kg/injection, schedule: Q01DX011 (ip), vehicle: water): 83 % of control

Compound: Cc1ccccc1N=Nc1ccc(N=Nc2ccc(O)cc2)c(C)c1
- T/C (dose: 1.87 mg/kg/injection, schedule: Q01DX011 (ip), vehicle: methylcellulose (MC)): 74 % of control
- T/C (dose: 1.87 mg/kg/injection, schedule: Q01DX011 (ip), vehicle: saline): 77 % of control
- T/C (dose: 3.25 mg/kg/injection, schedule: Q01DX011 (ip), vehicle: methylcellulose (MC)): 89 % of control
- T/C (dose: 3.25 mg/kg/injection, schedule: Q01DX011 (ip), vehicle: saline): 101 % of control
- T/C (dose: 7.5 mg/kg/injection, schedule: Q01DX011 (ip), vehicle: methylcellulose (MC)): 101 % of control
- T/C (dose: 7.5 mg/kg/injection, schedule: Q01DX011 (ip), vehicle: saline): 68 % of control
- T/C (dose: 15.0 mg/kg/injection, schedule: Q01DX011 (ip), vehicle: saline): 88 % of control

Compound: Cn1c(=O)c2[nH]c(N/N=C/c3ccc(Br)cc3)nc2n(C)c1=O
- T/C [1]: 109 % of control
- T/C [2]: 106 % of control
- T/C [3]: 92 % of control and 116 % of control
- T/C [4]: 104 % of control and 88 % of control
- T/C (dose: 480.0 mg/kg/injection, schedule: Q01DX011 (ip), vehicle: carboxymethylcellulose (CMC)): 97 % of control

Compound: CCCOC(=O)C1(N)CCCC1
- T/C [5]: 79 % of control
- T/C [6]: 44 % of control
- T/C (dose: 50.0 mg/kg/injection, schedule: Q01DX011 (ip), vehicle: carboxymethylcellulose (CMC)): 24 % of control
- T/C (dose: 100.0 mg/kg/injection, schedule: Q01DX011 (ip), vehicle: carboxymethylcellulose (CMC)): 7 % of control

Compound: CC(C)CNS(=O)(=O)c1ncnc2nc[nH]c12
- T/C [7]: 62 % of control
- T/C (dose: 6.0 mg/kg/injection, schedule: Q01DX011 (ip), vehicle: other): 81 % of control
- T/C (dose: 12.0 mg/kg/injection, schedule: Q01DX011 (ip), vehicle: other): 96 % of control
- T/C [5]: 24 % of control
- T/C (dose: 19.0 mg/kg/injection, schedule: Q01DX011 (ip), vehicle: carboxymethylcellulose (CMC)): 12 % of control
- T/C [6]: 8 % of control
- T/C (dose: 25.0 mg/kg/injection, schedule: Q01DX011 (ip), vehicle: other): 34 % of control
- T/C (dose: 50.0 mg/kg/injection, schedule: Q01DX011 (ip), vehicle: other): 6 % of control
- T/C [8]: 2 % of control
- T/C (dose: 100.0 mg/kg/injection, schedule: Q01DX011 (ip), vehicle: other): 10 % of control

Compound: Cn1cnc(N)c(NC=O)c1=O
- T/C [6]: 98 % of control
- T/C [8]: 113 % of control
- T/C (dose: 225.0 mg/kg/injection, schedule: Q01DX011 (ip), vehicle: carboxymethylcellulose (CMC)): 115 % of control

Compound: O=CCC(O)C(O)C(O)CO (configuration not stated)
- T/C (dose: 125.0 mg/kg/injection, schedule: Q01DX011 (ip), vehicle: carboxymethylcellulose (CMC)): 106 % of control and 122 % of control

Compound: CCn1cnc2c(=S)nc[nH]c21
- T/C (dose: 0.75 mg/kg/injection, schedule: Q01DX011 (ip), vehicle: carboxymethylcellulose (CMC)): 100 % of control
- T/C (dose: 0.75 mg/kg/injection, schedule: Q#A X022 (ip), vehicle: carboxymethylcellulose (CMC)): 18 % of control
- T/C (dose: 1.5 mg/kg/injection, schedule: Q01DX006 (iv), vehicle: carboxymethylcellulose (CMC)): 121 % of control
- T/C (dose: 1.5 mg/kg/injection, schedule: Q01DX011 (im), vehicle: carboxymethylcellulose (CMC)): 14 % of control
- T/C (dose: 1.5 mg/kg/injection, schedule: Q01DX011 (sc), vehicle: carboxymethylcellulose (CMC)): 39 % of control
- T/C (dose: 1.5 mg/kg/injection, schedule: Q#A X022 (ip), vehicle: carboxymethylcellulose (CMC)): 1 % of control
- T/C (dose: 3.0 mg/kg/injection, schedule: Q01DX006 (iv), vehicle: carboxymethylcellulose (CMC)): 22 % of control
- T/C (dose: 3.0 mg/kg/injection, schedule: Q01DX011 (im), vehicle: carboxymethylcellulose (CMC)): 5 % of control
- T/C (dose: 3.0 mg/kg/injection, schedule: Q01DX011 (ip), vehicle: carboxymethylcellulose (CMC)): 6 % of control and 19 % of control
- T/C (dose: 3.0 mg/kg/injection, schedule: Q01DX011 (sc), vehicle: carboxymethylcellulose (CMC)): 17 % of control
- T/C (dose: 3.0 mg/kg/injection, schedule: Q#A X022 (ip), vehicle: carboxymethylcellulose (CMC)): 1 % of control
- T/C (dose: 4.5 mg/kg/injection, schedule: Q03DX004 (ip), vehicle: carboxymethylcellulose (CMC)): 24 % of control
- T/C (dose: 4.6 mg/kg/injection, schedule: Q01DX011 (ip), vehicle: carboxymethylcellulose (CMC)): 58 % of control
- T/C (dose: 4.62 mg/kg/injection, schedule: Q01DX011 (ip), vehicle: carboxymethylcellulose (CMC)): 1 % of control
- T/C (dose: 6.0 mg/kg/injection, schedule: Q01DX006 (iv), vehicle: carboxymethylcellulose (CMC)): 15 % of control
- T/C (dose: 6.0 mg/kg/injection, schedule: Q01DX011 (im), vehicle: carboxymethylcellulose (CMC)): 1 % of control
- T/C [7]: 4 % of control and 13 % of control
- T/C (dose: 6.0 mg/kg/injection, schedule: Q01DX011 (sc), vehicle: carboxymethylcellulose (CMC)): 3 % of control
- T/C (dose: 6.0 mg/kg/injection, schedule: Q#A X022 (ip), vehicle: carboxymethylcellulose (CMC)): 1 % of control
- T/C (dose: 9.0 mg/kg/injection, schedule: Q03DX004 (ip), vehicle: carboxymethylcellulose (CMC)): 23 % of control
- T/C (dose: 9.2 mg/kg/injection, schedule: Q01DX011 (ip), vehicle: carboxymethylcellulose (CMC)): 20 % of control
- T/C (dose: 9.25 mg/kg/injection, schedule: Q01DX011 (ip), vehicle: carboxymethylcellulose (CMC)): 1 % of control
- T/C (dose: 9.25 mg/kg/injection, schedule: Q01DX011 (oral), vehicle: carboxymethylcellulose (CMC)): 1 % of control
- T/C (dose: 11.0 mg/kg/injection, schedule: Q07DX002 (ip), vehicle: carboxymethylcellulose (CMC)): 53 % of control
- T/C (dose: 12.0 mg/kg/injection, schedule: Q01DX006 (iv), vehicle: carboxymethylcellulose (CMC)): 3 % of control
- T/C (dose: 12.0 mg/kg/injection, schedule: Q01DX011 (ip), vehicle: carboxymethylcellulose (CMC)): 3 % of control
- T/C (dose: 18.0 mg/kg/injection, schedule: Q03DX004 (ip), vehicle: carboxymethylcellulose (CMC)): 4 % of control
- T/C (dose: 18.5 mg/kg/injection, schedule: Q01DX011 (ip), vehicle: carboxymethylcellulose (CMC)): 6 % of control
- T/C (dose: 22.0 mg/kg/injection, schedule: Q07DX002 (ip), vehicle: carboxymethylcellulose (CMC)): 33 % of control
- T/C (dose: 25.0 mg/kg/injection, schedule: Q01DX006 (iv), vehicle: carboxymethylcellulose (CMC)): 2 % of control
- T/C [6]: 1 % of control
- T/C (dose: 25.0 mg/kg/injection, schedule: Q01DX011 (sc), vehicle: carboxymethylcellulose (CMC)): 1 % of control
- T/C (dose: 37.0 mg/kg/injection, schedule: Q01DX011 (ip), vehicle: carboxymethylcellulose (CMC)): 2 % of control
- T/C (dose: 37.0 mg/kg/injection, schedule: Q03DX004 (ip), vehicle: carboxymethylcellulose (CMC)): 1 % of control
- T/C (dose: 44.0 mg/kg/injection, schedule: Q07DX002 (ip), vehicle: carboxymethylcellulose (CMC)): 8 % of control
- T/C (dose: 75.0 mg/kg/injection, schedule: Q03DX004 (ip), vehicle: carboxymethylcellulose (CMC)): 1 % of control
- T/C (dose: 87.0 mg/kg/injection, schedule: Q07DX002 (ip), vehicle: carboxymethylcellulose (CMC)): 4 % of control and 8 % of control
- T/C (dose: 350.0 mg/kg/injection, schedule: Q07DX002 (ip), vehicle: carboxymethylcellulose (CMC)): 2 % of control

Compound: CC(=O)[C@H]1CC[C@H]2[C@@H]3C[C@H](C)C4=CC(=O)CC[C@]4(C)[C@H]3C(=O)C[C@]12C
- T/C (dose: 25.0 mg/kg/injection, schedule: Q01DX011 (sc), vehicle: steriod suspending solution): 65 % of control
- T/C (dose: 50.0 mg/kg/injection, schedule: Q01DX011 (sc), vehicle: steriod suspending solution): 78 % of control
- T/C (dose: 200.0 mg/kg/injection, schedule: Q01DX011 (sc), vehicle: steriod suspending solution): 35 % of control and 43 % of control
- T/C (dose: 400.0 mg/kg/injection, schedule: Q01DX011 (sc), vehicle: steriod suspending solution): 21 % of control
- T/C (dose: 800.0 mg/kg/injection, schedule: Q01DX011 (sc), vehicle: steriod suspending solution): 30 % of control
